Experimental data taken from patent publication US20160340659A1, “ACTIN BINDING PEPTIDES AND COMPOSITIONS COMPRISING SAME FOR INHIBITING ANGIOGENESIS AND TREATING MEDICAL CONDITIONS ASSOCIATED WITH SAME” (YISSUM RESEARCH AND DEVELOPMENT COMPANY OF THE HEBREW …, priority 2014, published 2016).
Marks after values point to notes of the source that are not given here. Where no end group is shown, it is not given here.

Columns and labels:
[1] = molecular target: T1, G-Actin from rabbit muscle (Oryctolagus cuniculus, UniProt P68135); assay: ELISA actin binding assay (solid-phase, immobilized actin); conditions: immobilized G-actin 500 ng/well
T1 construct: G-Actin from rabbit muscle; purchased Sigma-Aldrich, St Louis, Mo; host or cells: rabbit muscle (tissue-derived)
Method: Peptides corresponding to a variety of amino acid sequences in the region of human RNASET2 comprising helix 5 and helix 6 were synthesized and assayed for actin binding in an ELISA actin binding assay.
Solid-phase ELISA for RNASET2 peptide binding to immobilized actin was performed as modified from Mejean 1987 (Biochem. J. 244: 571-577) and Mejean 1992 (Eur. J Biochem. 209: 555-562). All steps were conducted at 37° C. Immuno-96 Microwell™ solid plates (Thermo Fisher Scientific, MA) coated with 500 ng/well of G-Actin from rabbit muscle (Sigma-Aldrich, St Louis, Mo.) in 100 ul of 0.05 M carbonate buffer, pH 9.5 (Sigma-Aldrich, Mo), incubated for 1 h and washed with 250 ul/well Tris Buffered Saline (TBS) (Sigma-Aldrich). The wells were blocked with 3% bovine serum albumin (BSA, Sigma-Aldrich) in 200 ul/well TBS for another 1 hour and washed with 250 ul/well TBS. The candidate peptides are then added at various concentrations (for example, serial dilutions giving 500, 250 or 125 ng/well) in 100 ul/well Tris Buffered Saline (TBS), incubated for 1 hour and washed 3 times with 250 ul/well TBS containing 0.05% Tween®20 (TBST, Sigma-Aldrich). Anti-T2 RNase (rabbit anti-rhtrRNASET2, Anilab, Israel, whole serum or antiserum) was then added, incubated for 1 hour and the plates washed 3 times with 250 ul/well TBST. Labeled second antibody [peroxidase-conjugated affinity pure goat-anti rabbit IgG (Jackson, Pa.)] was added at a dilution of 1:10:000 in 100 ul/well TBS, incubated for 1 hour and the plates washed twice with 250 ul/well TBST. After an additional wash with 250 ul/well TBS, 1-Step Ultra TMB-ELISA (TMB-3,3′,5,5′ Tetramethylbenzidine) (Thermo-Scientific) was added (100 ul/well) and after 15-25 min of incubation, the reaction was read at A650 using Infinite F50-TECAN ELISA READER (TECAN, Austria). Each assay was performed in triplicates.

[2] = system: Super metastatic A375SM cells; assay: A375SM xenograft tumor model in athymic nude mice; format: in vivo, mouse; conditions: for Tumor Weight: excised tumors at end
Method: Female Hds-athymic nude mice (Harlan, Rehovot, Israel) were housed in laminar flow cabinets under specific pathogen-free conditions. Experiments were performed on mice at 7-8 weeks of age. The Animals were maintained in facilities approved by the Ethics Committee for Animal Experimentation, The Israeli Ministry of Health.
Subcutaneous tumors were produced by injecting 2.5×10^5 Super metastatic A375SM cells (single-cell suspensions, >95% viability by a trypan blue exclusion test) in 0.2 ml of Hanks' buffered salt solution into the left flank of each mouse. Tumor growth was recorded three times weekly with a caliper and calculated as a×b^2/2 cm^3 (a, long diameter; b, short diameter). Treatments commenced when tumors arrived to about 100 mm^3 volumes, as follows (iv=intravenous; it=intra-tumor, direct injection, q3×6=three times per week for six weeks, […]):
Each group comprised 10 mice. At the end of experiment, tumors were excised, weighed, and prepared for histopathological examination.
Sections from the excised tumors were examined for athological changes, using Hematoxylin-Eosin staining (nuclei stain blue) and FragEL™ TdT DNA Fragmentation Detection stain (Calbiochem, EMD Millipore, MA) for visualizing apoptotic nuclei.

[3] = 2.5 mg/kg intratumoral, three times per week
[4] = 2.5 mg/kg iv, three times per week
[5] = 5 mg/kg iv, three times per week

Sequence	actin binding on ELISA [1]	tumor volume (tumor growth) ([2]; 2.5 mg/kg intra-tumor, three times per week, vs PBS control)	tumor apoptosis (FragEL stain of tumor sections) [2, 3]	tumor vascular structures (H&E sections) [2, 3]	tumor apoptosis (FragEL stain of tumor sections) ([2]; 2.5 mg/kg iv, daily)	tumor vascular structures (H&E sections) ([2]; 2.5 mg/kg iv, daily)	tumor volume (tumor development) ([2]; 2.5 mg/kg iv, daily for six weeks, vs PBS control)	tumor apoptosis (FragEL stain of tumor sections) [2, 4]	tumor vascular structures (H&E sections) [2, 4]	tumor volume (tumor development) ([2]; 2.5 mg/kg iv, three times per week for six weeks, vs PBS control)	Tumor Weight ([2]; 2.5 mg/kg q7x6 iv)	tumor apoptosis (FragEL stain of tumor sections) [2, 5]	tumor vascular structures (H&E sections) [2, 5]	tumor growth ([2]; 5 mg/kg iv, three times per week, vs PBS control)	Tumor Weight ([2]; 5 mg/kg q3x6 iv)	tumor apoptosis (FragEL stain of tumor sections) ([2]; 7.5 mg/kg iv, three times per week)	tumor vascular structures (H&E sections) ([2]; 7.5 mg/kg iv, three times per week, relative to PBS controls)	tumor growth ([2]; 7.5 mg/kg iv, three times per week, vs PBS control)	Tumor Weight ([2]; 7.5 mg/kg q3x6 iv)
ALNSQKKYFGRSLELYRELDLNSVLLKLGIKPSINYYQVADFKDALARVYGVIPKIQ [SEQ ID NO: 60]	strong	–	–	–	–	–	–	–	–	–	–	–	–	–	–	–	–	–	–
KKYFGRSLELYRELDLNSVLLKLGIK [SEQ ID NO: 57, 26-amino acid peptide representing amino acids 108-133 of RNASET2]	strong actin binding	Increasing inhibition of tumor growth	abundant apoptosis	tumor cells can be seen accumulating towards the blood vessels	heightened apoptosis	significant disruption of tumor histology and vascular structures	increased the rate of tumor development	abundant apoptotic cells	visible disruption of the endothelial structure	trend of increasing inhibition of tumor development	3469 ± 648^a	an increase in apoptotic rate	only partial disruption of the endothelial cell structures	no visible significant effect on tumor growth	1798 ± 385^b	an increase in apoptotic rate	A small, if any effect	no visible significant effect on tumor growth	1471 ± 418^b
